“Also recorded” adds a separate entry of the source. Marks after values point to notes of the source that are not given here.
B1: catalase: catalase (CAT), enzyme that can convert H2O2 to H2O (protein, UniProt P00432 2-527, looked up)
Catalase: ADNRDPASDQMKHWKEQRAAQKPDVLTTGGGNPVGDKLNSLTVGPRGPLLVQDVVFTDEMAHFDRERIPERVVHAKGAGAFGYFEVTHDITRYSKAKVFEHIGKRTPIAVRFSTVAGESGSADTVRDPRGFAVKFYTEDGNWDLVGNNTPIFFIRDALLFPSFIHSQKRNPQTHLKDPDMVWDFWSLRPESLHQVSFLFSDRGIPDGHRHMNGYGSHTFKLVNANGEAVYCKFHYKTDQGIKNLSVEDAARLAHEDPDYGLRDLFNAIATGNYPSWTLYIQVMTFSEAEIFPFNPFDLTKVWPHGDYPLIPVGKLVLNRNPVNYFAEVEQLAFDPSNMPPGIEPSPDKMLQGRLFAYPDTHRHRLGPNYLQIPVNCPYRARVANYQRDGPMCMMDNQGGAPNYYPNSFSAPEHQPSALEHRTHFSGDVQRFNSANDDNVTQVRTFYLKVLNEEQRKRLCENIAGHLKDAQLFIQKKAVKNFSDVHPEYGSRIQALLDKYNEEKPKNAVHTYVQHGSHLSAREKANL

Experiments:
[1] = EPR signal of nitroxides exposed to O2 flux formed by HX/XO (spin-loss); assay type: biochemical; conditions: for Steady state EPR signal (%): % from total R′RNO + R′RNOH after exposure to 5 mM HX + 0.03 U/ml XO in air-saturated PBS pH 7.2
Experimental: For EPR experiments, samples (0.05-0.1 ml) either of solutions of chemicals or cell suspensions were drawn by a syringe into a gas-permeable teflon capillary of 0.8 mm inner diameter, 0.05 mm wall thickness (Zeus Industrial Products, Inc. Raritan, N.J.). Each capillary was folded twice, inserted into a narrow quartz tube which was open at both ends (2.5 mm ID), and then placed horizontally into the EPR cavity. During the experiments, gases of desired compositions were blown around the sample without having to disturb the alignment of the tube within the EPR cavity. EPR spectra were recorded in a Varian E4 (or E9) X-band spectrometer, with field set at 3357 G, modulation frequency of 100 KHz, modulation amplitude of 1 G and non-saturating microwave power. The EPR spectrometer was interfaced to an IBM-PC through an analog-to-digital converter and a data translation hardware (DT2801) and the spectra were digitized using commercial acquisition software, enabling subtraction of background signals. To study the kinetics of the spin-loss, the spectra were deliberately overmodulated, and the magnetic field was kept constant while the intensity of the EPR signal was followed.

[2] = SOD-inhibitable ferricytochrome c reduction assay, rate constants of reaction with O2 (SOD-like activity); assay type: biochemical; conditions: low ionic strength (10 mM HEPES), pH 7.0, 22° C.
Text: As a further check, the reaction of representatives of both 5- and 6-membered cyclic nitroxides with O2 was studied. The SOD-inhibitable ferricytochrome c reduction assay (Fridovich, Handbook of Methods for Oxygen Radical Research, 213-215, 1985) was used to determine rate constants of reaction with O2. […] The reaction was started by adding 0.01 U/ml XO and the rate of ferricytochrome c reduction, in the absence (V) and in the presence (v) of various nitroxides, was spectrophotometrically followed at 550 nm. Both reference and sample cuvettes contained all the reagents, with the reference cuvette containing 100 units/ml SOD, thereby eliminating spurious reactions from interfering with the determination of rate constants. Data were analyzed by plotting V/v as a function of [nitroxide] and k1 was calculated, knowing kCytC+superoxide, according to:
(V/v)−1=k1x[nitroxide]/kCytC+superoxidex[Cyt−c^III].

V79 cells = assay: Cytotoxicity of the agents alone, clonogenic assay; assay type: cell-based, Chinese hamster; conditions: concentrations used: catalase 100 U/ml; SOD 100 μg/ml; DF 500 μM; nitroxides 5 mM
Experimental: For subsequent studies, the most lipophilic nitroxide, CHD, and the most hydrophilic one, TEMPOL, were chosen.
Chinese hamster V79 cells were grown in F12 medium supplemented with 10% fetal calf serum, penicillin, and streptomycin. Survival was assessed in all studies by the clonogenic assay. The plating efficiency range between 80-90%. Stock cultures of exponentially growing cells were trypsinized, rinsed, and plated (5×10^5 cells/dish) into a number of 100 mm petri dishes and incubated 16 h at 37° C. prior to experimental protocols. Cells were exposed for 1 h at 37° C. to either 0.5 mM hypoxanthine (HX)+0.05 U/ml of xanthine oxidase (XO) for varying lengths of time, or to H2O2 at different concentrations. To assess possible modulation in cytotoxicity, catalase, 100 U/ml; SOD, 100 μg/ml; DF, 500 μM; and 5 mM of each of the nitroxides from Table 1 were added to parallel cultures. CHD was prepared in a stock solution in ethanol and diluted into medium such that the final concentration was 5 mM. […] TEMPOL is water soluble and was prepared directly in tissue culture medium. […] Following treatment, cells were rinsed, trypsinized, counted, and plated for macroscopic colony formation. […] Plates were incubated 7 days, after which colonies were fixed with methanol/acetic acid, stained with crystal violet, and counted. Colonies containing >50 cells were scored. […]

[3] = tested on: Chinese hamster V79 cells; assay: Protection of cells exposed to HX/XO, clonogenic survival; assay type: cell-based; conditions: 0.05 U/ml XO + 0.5 mM HX, 37° C.; 5 mM nitroxide; 100 U/ml catalase; SOD; 500 μM DF preincubated 2 h
Experimental: Chinese hamster V79 cells were grown in F12 medium supplemented with 10% fetal calf serum, penicillin, and streptomycin. Survival was assessed in all studies by the clonogenic assay. The plating efficiency range between 80-90%. Stock cultures of exponentially growing cells were trypsinized, rinsed, and plated (5×10^5 cells/dish) into a number of 100 mm petri dishes and incubated 16 h at 37° C. prior to experimental protocols. Cells were exposed for 1 h at 37° C. to either 0.5 mM hypoxanthine (HX)+0.05 U/ml of xanthine oxidase (XO) for varying lengths of time, or to H2O2 at different concentrations. To assess possible modulation in cytotoxicity, catalase, 100 U/ml; SOD, 100 μg/ml; DF, 500 μM; and 5 mM of each of the nitroxides from Table 1 were added to parallel cultures. CHD was prepared in a stock solution in ethanol and diluted into medium such that the final concentration was 5 mM. […] TEMPOL is water soluble and was prepared directly in tissue culture medium. […] DF was added either 2 h prior to or during treatment while the other agents were present only during HX/XO or H2O2 treatment. Following treatment, cells were rinsed, trypsinized, counted, and plated for macroscopic colony formation. For each dose determination cells were plated in triplicate and the experiments were repeated a minimum of two times. Plates were incubated 7 days, after which colonies were fixed with methanol/acetic acid, stained with crystal violet, and counted. Colonies containing >50 cells were scored. Error bars represent S.D. of the mean and are shown when larger than the symbol.

[4] = tested on: Chinese hamster V79 cells; assay: Protection of cells exposed to H2O2, clonogenic survival; assay type: cell-based; conditions: H2O2 for 1 h, 37° C., full medium; 5 mM nitroxide; 100 U/ml catalase; 100 μg/ml SOD; 500 μM DF preincubated 2 h
Experimental: Chinese hamster V79 cells were grown in F12 medium supplemented with 10% fetal calf serum, penicillin, and streptomycin. Survival was assessed in all studies by the clonogenic assay. The plating efficiency range between 80-90%. Stock cultures of exponentially growing cells were trypsinized, rinsed, and plated (5×10^5 cells/dish) into a number of 100 mm petri dishes and incubated 16 h at 37° C. prior to experimental protocols. Cells were exposed for 1 h at 37° C. to either 0.5 mM hypoxanthine (HX)+0.05 U/ml of xanthine oxidase (XO) for varying lengths of time, or to H2O2 at different concentrations. To assess possible modulation in cytotoxicity, catalase, 100 U/ml; SOD, 100 μg/ml; DF, 500 μM; and 5 mM of each of the nitroxides from Table 1 were added to parallel cultures. CHD was prepared in a stock solution in ethanol and diluted into medium such that the final concentration was 5 mM. […] TEMPOL is water soluble and was prepared directly in tissue culture medium. […] DF was added either 2 h prior to or during treatment while the other agents were present only during HX/XO or H2O2 treatment. Following treatment, cells were rinsed, trypsinized, counted, and plated for macroscopic colony formation. […] Plates were incubated 7 days, after which colonies were fixed with methanol/acetic acid, stained with crystal violet, and counted. Colonies containing >50 cells were scored. […]

DNA-Fe(II) = assay: Reaction of nitroxide with DNA-Fe(II), EPR spin-loss and OD353nm; assay type: biochemical, Salmon; conditions: TEMPOL hypoxically mixed with DNA-Fe(II)
Experimental: All solutions always contained 0.1 mg/ml Salmon DNA. The appearance of DNA-Fe(III) was spectrophotometrically monitored at 353 nm, whereas the spin-loss of CHD was monitored by following its EPR signal. To study the time-dependence of ΔOD353nm (∘), 1 mM CHD was mixed with 0.1 mM Fe(II). To follow the spin-loss of CHD (□), 1 mM Fe(II) was mixed with 0.1 mM CHD.
It was also questioned whether the aerobic and hypoxic protection by CHD to H2O2 exposure was a result of CHD directly accepting electrons from ferrous ions, thereby preventing generation of .OH. Because cellular iron is chelated, the possible reaction of nitroxide with chelated iron(II) was examined by repeating the experiment in the presence of DNA. To study the possibility of nitroxide-induced oxidation of transition metals, CHD was hypoxically mixed with iron(II) in the presence of 0.1 mg/ml Salmon DNA. Consequently, DNA-Fe(III) was formed and the nitroxide EPR signal disappeared. The reaction kinetics were investigated by maintaining either CHD or Fe(II) in excess while the absorbance due to DNA-Fe(III) and the nitroxide spin-loss were monitored respectively (FIG. 6). Both the decay of the EPR signal and the appearance of the OD353nm obeyed pseudo 1st order kinetics from which the 2nd order reaction rate constant was calculated as 44 M^−1s^−1 or 33 M^−1s^−1 using the data from EPR or optical absorption, respectively.

[5] = tested on: Chinese hamster V79 cells; assay: In vitro protection against ionizing radiation, clonogenic survival; assay type: cell-based; conditions: 100 mM TEMPOL 10 min prior to irradiation
C3H mice [6] = assay: Protection of mice against whole body radiation, 30 day survival; assay type: in vivo
Experimental: Controls were given saline.
Controls were given saline. Survival was recorded 30 days after exposure to radiation. The LD50(30) refers to that dose of radiation at which 50% of the mice survived 30 days after exposure.

C3H mice [7] = assay: Nitroxide-induced weight loss, chronic oral administration in drinking water; assay type: in vivo; conditions: 10 mg per ml in drinking water
Text: Thus, nitroxide given over extended periods appears to cause weight loss in animals.

kidneys of mice = assay: Post-irradiation protection after local kidney irradiation, weight gain and kidney histology; assay type: in vivo; conditions: 28 weeks
Experimental: This hypothesis has been tested in experiments where both kidneys of mice were locally irradiated with single, acute doses of radiation. […] At 28 weeks after irradiation, the animals were sacrificed, and histological analysis was performed on their kidneys to assess damage.

[8] = Water/octanol partition of nitroxides, ratio determined by EPR; assay type: physicochemical; conditions: Octanol:water
Text: CHD, 2-spirocyclohexane doxyl(2-spirocyclohexane-5,5-dimethyl-3-oxazolidinoxyl) and OXANO, 2-ethyl-2,5,5-trimethyl-3-oxazolidine-1-oxyl as well as other nitroxides were synthesized as described by Keana et al (J. Am. Chem. Soc., 89, 3055-3056, 1967) For the general synthesis of the cyclic amines, the appropriate starting ketone was reacted with 2-amino-2-methyl-1-propanol in benzene in the presence of catalytic amounts of p-toluene sulfonic acid. As the cyclic structure formed, water was eliminated. The volume of water collected in a Dean Stark apparatus was monitored and used to gauge the reaction progress. The amines thus produced were purified through fractional distillation under reduced pressure, characterized by 220 MHz ^1H NMR, IR, UV, either EI or CI mass spectroscopy, and subsequently oxidized to the corresponding nitroxides using m-chloroperbenzoic acid. The nitroxides were purified by silica flash chromatography (Still et al, J. Org. Chem., 43, 2923-2925, 1978). Water/octanol ratios were determined by placing a quantity of nitroxide in water+octanol within a separatory funnel. The mixture was shaken thoroughly and allowed to separate for 15 min, whereupon aliquots were taken from both fractions and the ratio of nitroxide distribution was determined using electron paramagnetic resonance (EPR) spectroscopy, by comparing the intensities of signal obtained under N2.

Molecule	Steady state EPR signal (%) [1] [%]	effect of O2 on the EPR signal ([1]; exposure to O2 flux formed by HX/XO)	kR′RNO + O2 [2]	cytotoxicity of agent alone (V79 cells)	cell survival / protection from HX/XO [3]	protection against H2O2 cytotoxicity [4]	2nd order reaction rate constant with DNA-Fe(II) (DNA-Fe(II)) [M⁻¹ s⁻¹]	extent of protection against irradiation [5]	toxicity in irradiated mice (C3H mice [6]; 275 mg/kg intraperitoneally)	increase of LD50(30) (C3H mice [6]; 275 mg/kg intraperitoneally 10 min prior to whole body radiation 3 Gy to 13 Gy, versus saline controls)	toxicity on chronic oral administration (C3H mice [7]; >3 weeks)	reduction of weight compared to controls (C3H mice [7]; chronic oral administration (>3 weeks)) [%]	kidney histology, TEMPOL alone (kidneys of mice; no radiation)	kidney histology, 24 Gy plus TEMPOL (kidneys of mice; single dose 24 Gy, oral TEMPOL two weeks post-irradiation)	Partition coefficient [8]
CC1(C)CC(O)CC(C)(C)N1[O] [TEMPOL, 4-hydroxy-2,2,6,6-tetramethylpiperidine-1-oxyl]	100	no effect	3.4 × 10^5 M − 1^s − 1	Neither catalase, SOD, DF, CHD, nor TEMPOL were cytotoxic alone	fully protected	fully protected; also recorded: complete protection	40	approximately 2.5 fold	no toxicity	approximately 25%	no apparent toxicity	12.5	identical to a section from a kidney of a control animal	protection against glomerular sclerosis and tubular cell loss	
CCC1(C)OC(C)(C)CN1[O] (stereo not drawn) [OXANO, 2-ethyl-2,5,5-trimethyl-3-oxazolidine-1-oxyl]	50		1.1 × 10^3 M − 1^s − 1												10
B1					complete protection										

Reference: patent US6605619B1, “Nitroxides as protectors against oxidatives stress” (The United States of America as represented by the …, priority 1992, dated 2003)
